pKd: −log10 of the molar value.
Target: ShPyV VP1
Settings: glycan coupled to BSA by reductive amination and immobilised on CM5 chip; multivalent (avidity); pH 7.4, 25 °C; kinetic fit

Question: CC(=O)N[C@H]1[C@@H](O[C@H]2[C@@H](O)[C@@H](CO)O[C@@H](O[C@H]3[C@@H](O)[C@@H](CO)O[C@H](O[C@@H]4[C@H](O)[C@@H](O)[C@H](O[C@H]5[C@H](O)[C@@H](O)C(O)O[C@@H]5CO)O[C@@H]4CO)[C@@H]3O)[C@@H]2NC(C)=O)O[C@H](CO)[C@H](O)[C@@H]1O (stereo partly shown) [FP, Forssman pentaose] was tested. Which pKd did it give?
Answer: The pKd was 8.44.
